From patent publication US20180094248A1, “Necroptosis Signaling as a Therapeutic Target for Alzheimer's Disease” (Arizona Board of Regents on behalf of Arizona State …, priority 2016, published 2018)

Columns and labels:
[1] = test system: primary cortical neurons from wild type littermate mice; experiment: NeuN count of wild type primary cortical neurons treated with Nec-1S or vehicle; assay type: cell-based, mouse; conditions: 10 μM at DIV 7 and DIV 11
Method: (§1) To probe for a direct link between necroptosis and neuronal loss in AD, we plated primary cortical neurons from APP/PS1 and wild type littermate mice. After seven days in vitro (DIV), neurons were treated with 10 μM of the necroptosis inhibitor 7-Cl-O-necrostatin (Nec15) or vehicle. Treatment was repeated at DIV 11. We then fixed neurons at DIV 11 and 15, and stained them for NeuN to count total number of neurons. […] To determine changes in necroptosis, we isolated proteins from neurons of the same four groups and measured the levels of total and phosphorylated MLKL by western blot.
(§2) Primary neuronal cultures—For the GFP experiments: Primary neurons were isolated from APP/PS1 and NonTg Po pups. The tissue was then dissociated in Neurobasal media (Thermo Fisher Scientific) and spun down for 3 minutes at 5,000 g at 4° C. The supernatant was discarded and the pellet was re-suspended in 1 ml of Neurobasal media supplemented with B27 (Thermo Fisher Scientific). […] Neurons were treated for a total of 15 days and the GFP fluorescence was measured every 4 days. […] All fluorescent measurements (excitation 488 nm, emission 509 nm) were performed using the Synergy HT multi-mode microplate reader with the Gen5 software (BioTek, Winooski, Vt.). The reader was pre-heated to 37° C. to maintain optimal conditions for the neurons during the measurements. […]

[2] = test system: primary cortical neurons from APP/PS1 mice; experiment: NeuN count of APP/PS1 primary cortical neurons treated with Nec-1S or vehicle; assay type: cell-based, mouse
Method: as §1, §2

5xFAD mice = experiment: Fluoro-Jade staining of brain sections of 5xFAD mice treated with Nec-1S in vivo; parameters: species or system mouse; conditions: 8-month-old 5xFAD mice; 10 mg/kg i.p. once, then 0.5 mg/ml in drinking water for 21 days; vs vehicle
Method: Specifically, mice receive a single intraperitoneal injection of 10 mg/kg Nec1s after which they were given Nec1S in their drinking water at a concentration of 0.5 mg/ml for 21 days.
Immunohistochemistry: Coronal sections from hippocampus and temporal gyms of control (CTL) and Alzheimer's disease (AD) cases were pre-mounted on coated slides and washed in TBS. After blocking in TBSB (TBS, 2% BSA, and 0.1% Triton X), tissue was incubated overnight at 4° C. with the following primary antibodies: RIPK1 (1:200, BD Transduction Laboratories, catalog number 610459), MLKL (1:200, Novus Biologicals, catalog number NBP1-56729), RIPK3 (1:200, RD Systems catalog number MAB7604), pMLKL Ser358/Thr357 (1:200, Abcam, catalog number ab187091), pMLKL (1:200, SAB Signalway Antibody, catalog number 12837), NeuN (1:200, Cell Signaling, catalog number 024307P), Ibal (1:200, Wako, catalog number 09-19741), GFAP (1:200, Cell Signaling, catalog number 3670S), Caspase 3 (1:200, Millipore, catalog number AB3623), phospho-tau pSer202/Thr205 (ATB, 1:200, Thermo Fisher Scientific, catalog number MN1020), and pan-Cadherin (1:200, Abcam, catalog number ab6528 and ab6529). CP13 was a kind gift from Dr. Peter Davies. […]

CN1C(=O)NC(Cc2c[nH]c3c(Cl)cccc23)C1=O (stereo not shown) [Nec1S, 5-((7-chloro-1 H-indol-3-yl)methyl)-3-methylimidazolidine-2,4-dione]
decrease in the number of wild type neurons [1]: did not significantly affect the decrease in the number of wild type neurons
number of NeuN-positive neurons ([2]; DIV 15, 10 μM at DIV 7 and DIV 11, APP/PS1-Nec1S vs APP/PS1-veh and WT groups): more neurons than the APP/PS1-veh group, and as many neurons as both WT groups
in vitro cell death of APP/PS1 primary cortical neurons ([2]; overall conclusion of the two independent experiments (NeuN and GFP), 10 μM): reduces the accelerated in vitro cell death of APP/PS1 primary cortical neurons
Fluoro-Jade-positive neurons (5xFAD mice): fewer Fluoro-Jade-positive neurons compared to vehicle-treated 5xFAD mice
